# Where “and” joins values, the source holds several entries; their conditions need not be identical. Identical values can stand only once.
# Columns and labels:
# Assay type in all cases: in vivo, mouse
# [1] = system: TAMs (CD68+ cells) in H526 tumors; test: Immunofluorescent staining of CD68 (TAMs) in subcutaneous H526 tumors; details: subcutaneous H526 tumors from Fig. 3a, individual tumors
# Excerpt: (§1) Shown are immunofluorescent staining of CD68 (macrophage marker, red) and E-Cadherin (cancer cells, green) (a) and quantification of CD68 positive cells (b) in vehicle, NHWD-870 treated H526 (n = 6) and A2780 (n = 5) tumors from Fig. 3a, b, respectively. Scale bar is 100 μm. […] Shown are representative immunofluorescent staining of Ki67 and CD68 (c) and quantification of percentage of Ki67+ cells in CD68+ cells (d). Scale bar is 30 μm. Data are presented as mean ± SEM of five different tumors. e Schematics of the animal experiments using an orthotopic mouse OC model, established by intraperitoneally injecting human A2780 cells into female recipient nude mice. […] Shown are representative immunofluorescent staining of Ki67 and CD68 (h) and quantification of Ki67^+CD68^− (i) or Ki67^+CD68^+ (j), or CD68^+ cells (k). […] Data are presented as mean ± SEM from five different mice. p values were calculated using two-tailed, unpaired t tests in this figure. *p < 0.05; **p < 0.01; ***p < 0.001. […]
# (§2) Immunofluorescence staining of tumor sections was performed according to the manufacturer’s instructions. Slides were imaged using a Zeiss Axiovert 200 fluorescence microscope (Carl Zeiss MicroImaging; Thornwood, NY), and images were captured using Openlab3 software (Imprecision, Lexington, MA). Cleaved caspase 3, Ki67, CSF1, and CD68 positive cells were counted with ImageJ version 1.52s[58].
# [2] = system: ES-2 ovarian cancer; test: ES-2 ovarian tumor xenograft growth
# Procedure: 4–6 weeks old female BALB/c nude mice were used for most experiments, with the exception of 6–8 weeks old female C57BL/6 mice were used for B16F10 experiments, and 6–8 weeks old male BALB/c nude mice and SD rats were used for pharmacokinetic experiments. All animals were purchased from Shanghai SIPPR-Bk Lab Animal Co., Ltd. All animals were housed under a regimen of 12 h light/12 h dark cycles and specific pathogen-free conditions. 5×10^6 NCI-H526, ES-2, MDA-MB231, A2780, A375, B16F10, and TMD-8 cells (0.1 ml) were injected subcutaneously into female nude mice. The melanoma patient-derived xenograft model was derived from a human melanoma sample (BRAF, NARS and NF1 wild type, and p53 mutant) removed from a patient in Xiangya Hospital. Surgically removed tumor fragments were implanted subcutaneously into female NSG mice. When the tumors grew to ~1000 mm^3, they were harvested and cryopreserved or immediately re-implanted for expansion or experiments. Mouse body weight and tumor sizes were measured every 3 days. Once the tumors grew to 150–200 mm^3, mice were treated with the compounds as described in the Figures. 1 × 10^6 A2780 cells (1 ml) were injected into the abdominal cavity of nude mice. Ascitic volume and tumor weight were measured by an electronic balance. All the procedures were evaluated and approved by the Institutional Animal Care and Use Committee of Central South University and Yale University.
# Supplementary Figure 9. […]
# PO, oral administration; QD, once daily; BID, twice daily; D, day. (c,d) Tumor growth curves for ES2 ovarian tumor (c), MDA-MB231 breast tumor (d) bearing mice treated with the indicated compounds for 21 days. Compounds were orally administrated once daily. Data are presented as mean ± SEM from 6 different mice. p values were calculated using two-tailed, unpaired t tests.
# **, p<0.01; ***, p<0.001. Source data are provided as a Source Data file. […]
# [3] = system: TAMs (CD68+ cells) in A2780 tumors; test: Immunofluorescent staining of CD68 and Ki67 (TAMs) in subcutaneous A2780 tumors; details: individual tumors
# Excerpt: as §1, §2
# [4] = ES-2, 1mg/kg p.o. QD x 21D, day 0, group AVG
# [5] = ES-2, 1mg/kg p.o. QD x 21D, day 0, individual animals
# [6] = ES-2, 1mg/kg p.o. QD x 21D, day 4, group AVG
# [7] = ES-2, 1mg/kg p.o. QD x 21D, day 4, individual animals
# [8] = ES-2, 1mg/kg p.o. QD x 21D, day 7, group AVG
# [9] = ES-2, 1mg/kg p.o. QD x 21D, day 7, individual animals
# [10] = ES-2, 1mg/kg p.o. QD x 21D, day 11, group AVG
# [11] = ES-2, 1mg/kg p.o. QD x 21D, day 11, individual animals
# [12] = ES-2, 1mg/kg p.o. QD x 21D, day 14, group AVG
# [13] = ES-2, 1mg/kg p.o. QD x 21D, day 14, individual animals
# [14] = ES-2, 1mg/kg p.o. QD x 21D, day 17, group AVG
# [15] = ES-2, 1mg/kg p.o. QD x 21D, day 17, individual animals
# [16] = ES-2, 1mg/kg p.o. QD x 21D, day 20, group AVG
# [17] = ES-2, 1mg/kg p.o. QD x 21D, day 20, individual animals
# [18] = ES-2, 3mg/kg p.o. QD x 21D, day 0, group AVG
# [19] = ES-2, 3mg/kg p.o. QD x 21D, day 0, individual animals
# [20] = ES-2, 3mg/kg p.o. QD x 21D, day 4, group AVG
# [21] = ES-2, 3mg/kg p.o. QD x 21D, day 4, individual animals
# [22] = ES-2, 3mg/kg p.o. QD x 21D, day 7, group AVG
# [23] = ES-2, 3mg/kg p.o. QD x 21D, day 7, individual animals
# [24] = ES-2, 3mg/kg p.o. QD x 21D, day 11, group AVG
# [25] = ES-2, 3mg/kg p.o. QD x 21D, day 11, individual animals
# [26] = ES-2, 3mg/kg p.o. QD x 21D, day 14, group AVG
# [27] = ES-2, 3mg/kg p.o. QD x 21D, day 14, individual animals
# [28] = ES-2, 3mg/kg p.o. QD x 21D, day 17, group AVG
# [29] = ES-2, 3mg/kg p.o. QD x 21D, day 17, individual animals
# [30] = ES-2, 3mg/kg p.o. QD x 21D, day 20, group AVG
# [31] = ES-2, 3mg/kg p.o. QD x 21D, day 20, individual animals
smiles,measurement,setting,value
Cc1nnn(C)c1-c1cnc2c3c4cnn(C)c4ccc3n([C@H](c3ccccc3)C3CCOCC3)c2c1 [NHWD-870],quantification of CD68 positive cells,[1],0.3 and 1.5 and 0.1 and 0.7 and 0.5 and 1.1
same,"% Tumor growth, AVG",[2]; [4],0%
same,"Tumor volume, AVG",[2]; [4],182.834 mm^3
same,% Tumor growth,[2]; [5],0%
same,Tumor volume,[2]; [5],161.981 mm^3 and 208.246 mm^3 and 257.236 mm^3 and 142.384 mm^3 and 223.655 mm^3 and 103.5 mm^3
same,"% Tumor growth, AVG",[2]; [6],71.8081%
same,"Tumor volume, AVG",[2]; [6],319.202 mm^3
same,% Tumor growth,[2]; [7],19.7778% and 126.134% and 74.5915% and 55.5126% and 76.849% and 77.9831%
same,Tumor volume,[2]; [7],194.017 mm^3 and 470.917 mm^3 and 449.112 mm^3 and 221.425 mm^3 and 395.531 mm^3 and 184.213 mm^3
same,"% Tumor growth, AVG",[2]; [8],143.924%
same,"Tumor volume, AVG",[2]; [8],449.139 mm^3
same,% Tumor growth,[2]; [9],108.101% and 224.596% and 137.285% and 85.7809% and 134.14% and 173.642%
same,Tumor volume,[2]; [9],337.084 mm^3 and 675.959 mm^3 and 610.381 mm^3 and 264.522 mm^3 and 523.665 mm^3 and 283.22 mm^3
same,"% Tumor growth, AVG",[2]; [10],266.816%
same,"Tumor volume, AVG",[2]; [10],666.569 mm^3
same,% Tumor growth,[2]; [11],228.373% and 360.792% and 253.375% and 196.866% and 222.989% and 338.501%
same,Tumor volume,[2]; [11],531.902 mm^3 and 959.584 mm^3 and 909.007 mm^3 and 422.689 mm^3 and 722.381 mm^3 and 453.85 mm^3
same,"% Tumor growth, AVG",[2]; [12],321.081%
same,"Tumor volume, AVG",[2]; [12],765.856 mm^3
same,% Tumor growth,[2]; [13],250.605% and 403.815% and 289.634% and 267.746% and 320.675% and 394.009%
same,Tumor volume,[2]; [13],567.913 mm^3 and 1049.18 mm^3 and 1002.28 mm^3 and 523.611 mm^3 and 940.859 mm^3 and 511.301 mm^3
same,"% Tumor growth, AVG",[2]; [14],435.897%
same,"Tumor volume, AVG",[2]; [14],1001.66 mm^3
same,% Tumor growth,[2]; [15],362.904% and 591.91% and 468.225% and 329.053% and 437.775% and 425.513%
same,Tumor volume,[2]; [15],749.817 mm^3 and 1440.88 mm^3 and 1461.68 mm^3 and 610.902 mm^3 and 1202.76 mm^3 and 543.908 mm^3
same,"% Tumor growth, AVG",[2]; [16],569.584%
same,"Tumor volume, AVG",[2]; [16],1249.88 mm^3
same,% Tumor growth,[2]; [17],729.742% and 506.506% and 450.639% and 539.702% and 621.332%
same,Tumor volume,[2]; [17],1727.91 mm^3 and 1560.15 mm^3 and 784.021 mm^3 and 1430.72 mm^3 and 746.582 mm^3
same,"% Tumor growth, AVG",[2]; [18],0%
same,"Tumor volume, AVG",[2]; [18],180.514 mm^3
same,% Tumor growth,[2]; [19],0%
same,Tumor volume,[2]; [19],100.979 mm^3 and 154.514 mm^3 and 151.014 mm^3 and 168.003 mm^3 and 255.303 mm^3 and 253.274 mm^3
same,"% Tumor growth, AVG",[2]; [20],106.339%
same,"Tumor volume, AVG",[2]; [20],355.904 mm^3
same,% Tumor growth,[2]; [21],103.958% and 55.5923% and 228.844% and 138.521% and 84.9035% and 26.2158%
same,Tumor volume,[2]; [21],205.955 mm^3 and 240.412 mm^3 and 496.599 mm^3 and 400.722 mm^3 and 472.064 mm^3 and 319.672 mm^3
same,"% Tumor growth, AVG",[2]; [22],146.015%
same,"Tumor volume, AVG",[2]; [22],424.47 mm^3
same,% Tumor growth,[2]; [23],172.578% and 87.9551% and 265.997% and 159.587% and 128.487% and 61.4849%
same,Tumor volume,[2]; [23],275.247 mm^3 and 290.417 mm^3 and 552.706 mm^3 and 436.115 mm^3 and 583.334 mm^3 and 408.999 mm^3
same,"% Tumor growth, AVG",[2]; [24],196.378%
same,"Tumor volume, AVG",[2]; [24],514.744 mm^3
same,% Tumor growth,[2]; [25],265.602% and 115.285% and 217.088% and 283.945% and 177.512% and 118.838%
same,Tumor volume,[2]; [25],369.182 mm^3 and 332.645 mm^3 and 478.846 mm^3 and 645.04 mm^3 and 708.495 mm^3 and 554.259 mm^3
same,"% Tumor growth, AVG",[2]; [26],274.736%
same,"Tumor volume, AVG",[2]; [26],656.818 mm^3
same,% Tumor growth,[2]; [27],256.941% and 190.731% and 428.695% and 356.714% and 248.463% and 166.876%
same,Tumor volume,[2]; [27],360.436 mm^3 and 449.22 mm^3 and 798.401 mm^3 and 767.293 mm^3 and 889.635 mm^3 and 675.926 mm^3
same,"% Tumor growth, AVG",[2]; [28],372.557%
same,"Tumor volume, AVG",[2]; [28],841.506 mm^3
same,% Tumor growth,[2]; [29],349.385% and 221.259% and 495.296% and 524.547% and 433.889% and 210.963%
same,Tumor volume,[2]; [29],453.785 mm^3 and 496.39 mm^3 and 898.977 mm^3 and 1049.26 mm^3 and 1363.03 mm^3 and 787.588 mm^3
same,"% Tumor growth, AVG",[2]; [30],570.165%
same,"Tumor volume, AVG",[2]; [30],1173.35 mm^3
same,% Tumor growth,[2]; [31],589.68% and 492.445% and 716.71% and 706.345% and 598.649% and 317.161%
same,Tumor volume,[2]; [31],696.433 mm^3 and 915.41 mm^3 and 1233.34 mm^3 and 1354.69 mm^3 and 1783.67 mm^3 and 1056.56 mm^3
same,effect on tumor growth,"[2]; ES-2 ovarian cancer, oral once daily 21 days",strong tumor-suppressive effects
same,quantification of CD68 positive cells,[3]; subcutaneous A2780 tumors from Fig. 3b,0.5 and 0.3 and 0.2 and 1.2 and 2.3
same,percentage of Ki67+ cells in CD68+ cells,[3]; subcutaneous A2780 tumors,3.1 and 0 (3×) and 1.7
